Key:
[1] = tested on: MDCK cells; assay: Observation of Cyst form with confocal fluorescence microscope; assay type: cell-based, canine; conditions: 10 μM; β catenin, Phalloidin, DAPI staining; FIG. 1
Description: As for the respective Matrix GFRs containing Cyst cultured in a medium added with DMSO or A-004A (10 μM) and obtained in Experimental Example 3, the cells were washed with PBS (1 mL/well), 4% paraformaldehyde/PBS (manufactured by FUJIFILM Wako Pure Chemical Corporation) was added (1 mL/well) and fixed at room temperature for 20 min. Thereafter, the supernatant was removed, staining buffer [0.2% Triton X-100 (manufactured by Sigma-Aldrich), 0.05% Tween 20 (manufactured by Sigma-Aldrich)-containing PBS] were added at 1 mL/well, stood for 30 min and removed. Penetration buffer (0.5% Triton X-100 (manufactured by Sigma-Aldrich)/PBS) was added at 1 mL/well and incubated at room temperature for 30 min. The supernatant was removed, washed 3 times every 5 min with staining buffer, blocking buffer (1% bovine serum albumin (BSA manufactured by Sigma-Aldrich)/staining buffer) was added at 0.5 mL/well and incubated for 30 min. The supernatant was removed, an anti-β catenin antibody (manufactured by BD Bioscience) diluted 100-fold with blocking buffer was added at 250 μL/well, and the cells were incubated at room temperature for 60 min. […]

[2] = tested on: YAP; assay: YAP phosphorylation inhibitory action in SKOV3 (HTRF); assay type: cell-based, human; conditions: 10 μM, 1 hr, non-treatment 100%
Description: Human ovarian cancer cell line SKOV3 (manufactured by DS Pharma Biomedical Co., Ltd.) was precultured using a 15% FBS-containing McCoy's 5a medium (manufactured by Sigma-Aldrich) (single layer culture). The above-mentioned cells in the logarithmic growth phase were washed with PBS. A 0.25% (w/v) trypsin-1 mmol/L ethylenediaminetetraacetic acid (EDTA) solution (manufactured by FUJIFILM Wako Pure Chemical Corporation) was added and the adherent cells were incubated at 37° C. for 3 min and detached. The above-mentioned medium was added, and the cells were centrifuged and resuspended in the same medium.
According to the method of patent document 1 (WO 2014/017513), a composition of 10% FBS-containing DMEM medium (Phenol-red free, manufactured by FUJIFILM Wako Pure Chemical Corporation) containing 0.015% (w/v) deacylated gellan gum (KELCOGEL CG-LA, manufactured by SANSHO Co., Ltd.) was prepared using FCeM-series Preparation Kit (manufactured by FUJIFILM Wako Pure Chemical Corporation). Then, various cells prepared above were suspended in the above-mentioned medium composition (3D culture conditions) added with deacylated gellan gum or a medium without the addition (2D culture conditions), and seeded on a 50 μL/well (manufactured by Corning Incorporated, a 96 well flat bottom plate, #3585, 2D culture conditions) or 25 μL/well (manufactured by Corning Incorporated, 96 well low adhesion flat bottom plate, #3474) at 100000 cells/well. The plate was allowed to stand at 37° C. in a 5% CO2 incubator, and the compound of the present invention diluted with the medium at 2 or 6 times the final concentration, DMSO, or the medium alone was added to the plate 3 hr after the seeding at 50 μL/well (2D culture conditions) or 5 μL/well (3D culture conditions) to make the final concentration of each compound 10 μM. After culture at 37° C. in a 5% CO2 incubator for 1 hr, the supernatant was aspirated, supplemented Lysis buffer (1-fold concentration, manufactured by Cisbio, YAP-total kit or YAP phospho-S27 kit) (50 μL) was added under 2D culture conditions, and supplemented Lysys buffer (4-fold concentration) (10 μL) was added to the culture supernatant under 3D conditions, and the mixture was stirred by a plate shaker for 30 min. Thereafter, the plate was centrifuged, 16 μL of the supernatant was transferred to a 384-well white plate (Corning, #4512), and each antibody solution (pYAP d2 antibody or Total-YAP d2 antibody, and pYAP Cryptate antibody or Total-YAP Cryptate antibody) included in the kit was added at 4 μL/well in total, and the mixture was allowed to stand at room temperature overnight. As a blank control, pYAP Cryptate antibody or Total-YAP Cryptate antibody alone was added to cells free of stimulation with compound and the mixture was treated in the same manner. The next day, the wavelengths at 665 nm and 615′ nm were measured in the HTRF mode of EnVision (manufactured by PerkinElmer).
The obtained signal was calculated as follows. Ratio=signal (665 nm)/signal (615 nm)×10000, ΔR=Signal(Ratio)−Background fluorescence, and the relative phosphorylated YAP amount or total YAP amount for each compound when ΔR of the compound non-addition group (non-treatment) is 100% is shown in Tables 7 and 8 (2D culture), and Tables 9 and 10 (3D culture). From the results, it was shown that the compound of the present zo invention has a YAP phosphorylation inhibitory action under both 2D and 3D culture conditions.

[3] = tested on: Colitis model administered with dextran sulfate sodium (DSS); assay: Inflammation suppressive effect on DSS colitis model mouse; assay type: in vivo; conditions: C57BL/6NCrl mice; 2.5 w/v % DSS drinking water; 50 mg/kg intraperitoneally every 24 hr; day 8; FIG. 3
Description: Colitis model administered with dextran sulfate sodium (DSS) (manufactured by FUJIFILM Wako Pure Chemical Corporation) was produced as described below. The length of the large intestine is used as a morphological parameter in the evaluation of colitis, and the large intestine shortens according to the degree of inflammation. Therefore, the anti-inflammatory effect of the compound was evaluated by comparing the length of the large intestine. As the Buffer, a 0.5 w/v % methylcellulose aqueous solution (manufactured by FUJIFILM Wako Pure Chemical Corporation) added with Dimethyl sulfoxide (manufactured by FUJIFILM Wako Pure Chemical Corporation) at 1 v/v % was used. It was prepared by suspending compound A-004A in the above-mentioned Buffer at 5 mg/mL. As the mouse, male C57BL/6NCrl, 6-week-old, was purchased from CHARLES RIVER LABORATORIES JAPAN, INC. As drinking water, distilled water or a 2.5 w/v % DSS aqueous solution was freely given. The DSS drinking start date was set as day 1, and the water was given until day 8. Compound A-004A was intraperitoneally administered at 50 mg/kg every 24 hr from day 1. As a negative control, Buffer alone was administered similarly. On day 8, the mouse was dissected, the large intestine was isolated and the length of the large intestine was measured. Conducted in 3-4 cases in each group.

CC/C(=N\NC(=O)C(C)Nc1cccnc1)c1ccc(O)c(C)c1O (single isomer, unassigned) [A-004A, (E)-N′-(1-(2,4-dihydroxy-3-methylphenyl)propylidene)-2-(pyridin-3-ylamino)propanehydrazide]
Cyst form [1]: Cyst with a normal form was formed
phosphorylated YAP amount (%) ([2]; 2D culture conditions): 14%
total YAP amount (%) ([2]; 2D culture conditions): 97%
phosphorylated YAP amount (%) ([2]; 3D culture conditions): 11%
total YAP amount (%) ([2]; 3D culture conditions): 112%
length of the large intestine [3]: shortening of the large intestine was suppressed more
